Consider 26 compounds from ChEMBL document CHEMBL1770074, “Syntheses and characterization of novel oxoisoaporphine derivatives as dual inhibitors for cholinesterases and amyloid beta aggregation” (Eur J Med Chem, 2011).

The nature of experiment [1]: Inhibition of amyloid beta (1 to 42) aggregation assessed as inhibition of fibril formation at 10 uM by thioflavin-T fluorescent dye assay.
A further experiment deals with SH-SY5Y. The experiment in a line: cells. Conditions: Homo sapiens, 48 h.
Another experiment deals with Cholinesterase (Equus caballus, UniProt P81908).
A further experiment addresses Acetylcholinesterase (Electrophorus electricus, UniProt O42275).

Sequence of Cholinesterase (P81908 whole entry): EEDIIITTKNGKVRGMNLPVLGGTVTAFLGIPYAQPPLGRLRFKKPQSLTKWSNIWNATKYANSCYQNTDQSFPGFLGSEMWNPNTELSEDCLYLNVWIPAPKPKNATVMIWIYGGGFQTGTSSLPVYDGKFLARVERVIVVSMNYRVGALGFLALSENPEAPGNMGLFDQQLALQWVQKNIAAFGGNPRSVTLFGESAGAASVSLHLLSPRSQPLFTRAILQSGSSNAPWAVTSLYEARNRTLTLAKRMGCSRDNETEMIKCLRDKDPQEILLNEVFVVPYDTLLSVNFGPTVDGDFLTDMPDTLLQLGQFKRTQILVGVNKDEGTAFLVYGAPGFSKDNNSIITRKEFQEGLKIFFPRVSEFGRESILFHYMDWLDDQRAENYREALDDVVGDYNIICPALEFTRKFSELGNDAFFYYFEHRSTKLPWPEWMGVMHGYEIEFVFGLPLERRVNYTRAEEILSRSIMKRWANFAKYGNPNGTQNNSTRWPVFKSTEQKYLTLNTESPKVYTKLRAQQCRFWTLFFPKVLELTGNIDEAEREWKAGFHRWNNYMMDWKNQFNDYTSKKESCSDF
Sequence of Acetylcholinesterase (O42275 whole entry): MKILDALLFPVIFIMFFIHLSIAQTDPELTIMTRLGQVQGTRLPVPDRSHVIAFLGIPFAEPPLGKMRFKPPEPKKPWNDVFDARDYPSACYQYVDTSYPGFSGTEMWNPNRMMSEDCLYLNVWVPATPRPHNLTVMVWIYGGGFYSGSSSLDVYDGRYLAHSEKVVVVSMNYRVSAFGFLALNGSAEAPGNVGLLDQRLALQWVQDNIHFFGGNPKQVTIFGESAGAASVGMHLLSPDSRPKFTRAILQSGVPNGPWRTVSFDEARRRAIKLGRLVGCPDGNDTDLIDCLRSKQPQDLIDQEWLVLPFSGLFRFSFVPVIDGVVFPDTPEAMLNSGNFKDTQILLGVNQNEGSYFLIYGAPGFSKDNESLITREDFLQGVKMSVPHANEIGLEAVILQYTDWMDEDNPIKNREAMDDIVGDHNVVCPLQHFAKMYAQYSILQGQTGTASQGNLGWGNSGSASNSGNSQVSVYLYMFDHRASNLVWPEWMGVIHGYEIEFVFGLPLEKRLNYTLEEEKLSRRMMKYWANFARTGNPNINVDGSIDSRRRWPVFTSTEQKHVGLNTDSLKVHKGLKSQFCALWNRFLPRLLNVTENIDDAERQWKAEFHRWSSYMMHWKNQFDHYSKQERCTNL
Description for Acetylcholinesterase: Inhibition of electric eel AChE by Ellman's method
Description for SH-SY5Y: Cytotoxicity against human SH-SY5Y cells assessed as cell viability after 48 hrs by MTT assay

As for `CC[N+](C)(CC)CCC(=O)Nc1ccc2c(c1)C(=O)c1cccc3ccnc-2c13`, the inhibition in experiment [1] amounted to 82.7%. Moreover, the IC50 with SH-SY5Y is above 25 µM.
As for `CN(C)CCCC(=O)Nc1ccc2c(c1)C(=O)c1cccc3ccnc-2c13`, the inhibition in experiment [1] was determined as 65.2%. In the experiment with SH-SY5Y, this compound had an IC50 of 3.27 µM.
As to `C[N+]1(CCC(=O)Nc2ccc3c(c2)C(=O)c2cccc4ccnc-3c24)CCCC1`, the inhibition in experiment [1] is 85.9%. This compound also returned an IC50 with SH-SY5Y of 2.12 µM.
In the case of `O=C1c2ccccc2-c2nccc3c(OCCCN4CCCCC4)ccc1c23`, the inhibition in experiment [1] was 40.1%. Further, the results for the IC50 at Cholinesterase, with SH-SY5Y and on Acetylcholinesterase were 0.905 µM, above 25 µM and 0.022 µM, respectively.
In the case of `C[N+](C)(C)CCC(=O)Nc1ccc2c(c1)C(=O)c1cccc3ccnc-2c13`, in experiment [1], the inhibition was 80.1%. In the experiment on SH-SY5Y, this compound registered an IC50 above 25 µM.
With `O=C(CN1CCCC1)Nc1ccc2c(c1)C(=O)c1cccc3ccnc-2c13`, the inhibition in experiment [1] was found to be 45.4%. This compound yielded an IC50 in the experiment on SH-SY5Y of 5.37 µM.
Consider `CCN(CC)CCC(=O)Nc1ccc2c(c1)C(=O)c1cccc3ccnc-2c13`, for which the inhibition in experiment [1] came to 62.5%. Moreover, in the experiment with SH-SY5Y, the IC50 came to 3.94 µM.
Taken in the same sequence, the figures for `CN(C)CCC(=O)Nc1ccc2c(c1)C(=O)c1cccc3ccnc-2c13` were 69.8% and 4.14 µM.
Consider `CCN(CC)CCCOc1ccc2c3c(nccc13)-c1ccccc1C2=O`, for which the inhibition in experiment [1] came out at 14%. Moreover, the IC50 is 2.7 µM against Cholinesterase, above 25 µM with SH-SY5Y and 0.0343 µM at Acetylcholinesterase.
`O=C(CCN1CCCC1)Nc1ccc2c(c1)C(=O)c1cccc3ccnc-2c13`: the inhibition in experiment [1] came out at 69.8%. Also, it took 4.57 µM to reach half-maximal inhibition with SH-SY5Y (IC50).
As to `O=C1c2ccccc2-c2ncc(OCCN3CCCC3)c3cccc1c23`, the inhibition in experiment [1] was determined as 31.8%. The IC50 against Cholinesterase is 0.79 µM; with SH-SY5Y, 12 µM; on Acetylcholinesterase, 0.471 µM.
Taken in the same sequence, the figures for `C[N+]1(CCOc2cnc3c4c(cccc24)C(=O)c2ccccc2-3)CCCC1` were 48.8%, 0.302 µM, above 25 µM and 0.145 µM.
Regarding `CCN(CC)CCOc1cnc2c3c(cccc13)C(=O)c1ccccc1-2`, in experiment [1], the inhibition is 3.88%. The IC50 against Cholinesterase was found to be 1.49 µM; with SH-SY5Y, 9.21 µM; at Acetylcholinesterase, 0.7 µM.
Consider `COc1cc(/C=C/C(=O)CC(=O)/C=C/c2ccc(O)c(OC)c2)ccc1O`, for which, in experiment [1], the inhibition came to 33.3%.
Turning to `O=C1c2ccccc2-c2nccc3c(OCCN4CCCCC4)ccc1c23`, in experiment [1], the inhibition was 38.9%. For the same compound, the IC50 was 2.21 µM at Cholinesterase, above 25 µM in the experiment with SH-SY5Y and 0.088 µM at Acetylcholinesterase.
`CN(C)CCCNc1ccc2c3c(nccc13)-c1ccccc1C2=O`: the inhibition in experiment [1] stood at 57.6%. Moreover, the results for the IC50 against Cholinesterase, with SH-SY5Y and against Acetylcholinesterase were 3.35 µM, above 25 µM and 0.398 µM, respectively.
Regarding `CN1CCN(CCOc2ccc3c4c(nccc24)-c2ccccc2C3=O)CC1`, the inhibition in experiment [1] was determined as 43%. The results for the IC50 against Cholinesterase, in the experiment with SH-SY5Y and against Acetylcholinesterase were 2.75 µM, above 25 µM and 0.432 µM, respectively.
Consider `C[N+]1(CC(=O)Nc2ccc3c(c2)C(=O)c2cccc4ccnc-3c24)CCCC1`, for which the inhibition in experiment [1] is 52%. In the experiment on SH-SY5Y, the IC50 was above 25 µM.
`O=C1c2ccccc2-c2ncc(OCCN3CCCCC3)c3cccc1c23`: the inhibition in experiment [1] turned out to be 34.2%. In addition, the IC50 was 0.723 µM against Cholinesterase, above 25 µM with SH-SY5Y and 0.375 µM against Acetylcholinesterase.
For the compound `CN(C)CCOc1cnc2c3c(cccc13)C(=O)c1ccccc1-2`, the inhibition in experiment [1] turned out to be 14.3%. Also, the IC50 on Cholinesterase amounted to 1.64 µM; with SH-SY5Y, 16.2 µM; on Acetylcholinesterase, 1.56 µM.
`C[N+](C)(C)CCCC(=O)Nc1ccc2c(c1)C(=O)c1cccc3ccnc-2c13`: in experiment [1], the inhibition worked out at 58.6%. For the same compound, the IC50 with SH-SY5Y is above 25 µM.
For `CN1CCN(CCCOc2ccc3c4c(nccc24)-c2ccccc2C3=O)CC1`, the inhibition in experiment [1] was determined as 33.6%. Further, the IC50 against Cholinesterase was 5.5 µM; with SH-SY5Y, above 25 µM; on Acetylcholinesterase, 0.405 µM.
Take `C[N+]1(CCOc2cnc3c4c(cccc24)C(=O)c2ccccc2-3)CCCCC1`: in experiment [1], the inhibition amounted to 50.9%. For the same compound, the IC50 against Cholinesterase was 0.255 µM; with SH-SY5Y it was above 25 µM; against Acetylcholinesterase it was 0.095 µM.
Turning to `CC[N+](C)(CC)CCOc1cnc2c3c(cccc13)C(=O)c1ccccc1-2`, the inhibition in experiment [1] came out at 45.5%. The figures for the IC50 on Cholinesterase, with SH-SY5Y and against Acetylcholinesterase were 0.708 µM, above 25 µM and 0.258 µM, respectively.
As to `C[N+](C)(C)CCOc1cnc2c3c(cccc13)C(=O)c1ccccc1-2`, the inhibition in experiment [1] is 42%. Also, the results for the IC50 on Cholinesterase, with SH-SY5Y and against Acetylcholinesterase were 0.972 µM, above 25 µM and 0.933 µM, respectively.
Take `CCN(CC)CCOc1ccc2c3c(nccc13)-c1ccccc1C2=O`: the inhibition in experiment [1] was determined as 10.7%. Besides, the values for the IC50 at Cholinesterase, in the experiment on SH-SY5Y and at Acetylcholinesterase were 3.07 µM, above 25 µM and 0.201 µM, respectively.

The inhibition is the percentage by which the read-out fell short of the control. As a reminder, the IC50 is the concentration that gives 50% inhibition. A higher IC50 goes with weaker potency in that assay.
